Measurements: patent US10689367B2, “Triazole pyridyl compounds as agonists of the APJ receptor” (AMGEN INC., priority 2016, dated 2020)

What follows are compounds tested against human APJ receptor (Homo sapiens (Human), UniProt P35414) (assay: [35S]GTPγS binding assay on membranes from CHO cells stably expressing human APJ receptor). Conditions: membranes of CHO cells stably expressing human APJ receptor, read-out: Activity hAPJ SPA EC50 IP.
human APJ receptor, sequence (P35414 whole entry): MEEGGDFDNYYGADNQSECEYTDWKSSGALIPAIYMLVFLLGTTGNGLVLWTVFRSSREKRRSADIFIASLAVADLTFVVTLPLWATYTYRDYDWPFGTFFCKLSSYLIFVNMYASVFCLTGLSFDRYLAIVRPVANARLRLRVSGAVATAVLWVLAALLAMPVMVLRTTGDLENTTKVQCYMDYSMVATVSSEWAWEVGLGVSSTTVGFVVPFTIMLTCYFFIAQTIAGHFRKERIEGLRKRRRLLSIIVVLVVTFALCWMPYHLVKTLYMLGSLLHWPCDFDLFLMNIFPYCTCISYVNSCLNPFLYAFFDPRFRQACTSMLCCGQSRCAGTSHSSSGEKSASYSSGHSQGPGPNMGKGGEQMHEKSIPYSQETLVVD
Type: biochemical
Procedure, shortened: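 Agonist EC50 values come from non-linear regression of mean data from several independent runs. Membranes of CHO cells stably expressing human APJ were incubated 90 min at room temperature with [35S]GTPγS in buffer with optimized GDP, MgCl2 and NaCl, then read on a microplate imager.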
For COc1cccc(-c2nnc(NS(=O)(=O)[C@@H](C)[C@H](OC)c3ncc(Cl)cn3)n2[C@H](C)c2cscn2)n1 (single isomer, unassigned) [Example 345.0, (1R,2S)-1-(5-chloropyrimidin-2-yl)-1-methoxy-N-(5-(6-methoxypyridin-2-yl)-4-((S)-1-(thiazol-4-yl)ethyl)-4H-1,2,4-triazol-3-yl)propane-2-sulfonamide or (1R,2 S)-1-(5-chloropyrimidin-2-yl)-1-methoxy-N-(5-(6-methoxypyridin-2-yl)-4-((R)-1-(thiazol-4-yl)ethyl)-4H-1,2,4-triazol-3-yl)propane-2-sulfonamide], the EC50 was 1.1 nM. Work on COc1cccc(-c2nnc(NS(=O)(=O)[C@@H](C)[C@H](OC)c3ncc(Cl)cn3)n2[C@H](C)c2cncs2)n1 (single isomer, unassigned) [Example 346.0, (1R,2S)-1-(5-chloropyrimidin-2-yl)-1-methoxy-N-(5-(6-methoxypyridin-2-yl)-4-((R)-1-(thiazol-5-yl)ethyl)-4H-1,2,4-triazol-3-yl)propane-2-sulfonamide or (1R,2S)-1-(5-chloropyrimidin-2-yl)-1-methoxy-N-(5-(6-methoxypyridin-2-yl)-4-((S)-1-(thiazol-5-yl)ethyl)-4H-1,2,4-triazol-3-yl)propane-2-sulfonamide] yielded an EC50 of 4.4 nM. For COc1cccc(-c2nnc(NS(=O)(=O)[C@@H](C)[C@H](OC)c3ncc(Cl)cn3)n2[C@H](C)c2cncs2)n1 (single isomer, unassigned) [Example 347.0, (1R,2S)-1-(5-chloropyrimidin-2-yl)-1-methoxy-N-(5-(6-methoxypyridin-2-yl)-4-((R)-1-(thiazol-5-yl)ethyl)-4H-1,2,4-triazol-3-yl)propane-2-sulfonamide or (1R,2S)-1-(5-chloropyrimidin-2-yl)-1-methoxy-N-(5-(6-methoxypyridin-2-yl)-4-((S)-1-(thiazol-5-yl)ethyl)-4H-1,2,4-triazol-3-yl)propane-2-sulfonamide], the EC50 was 0.48 nM. COc1cccc(-c2nnc(NS(=O)(=O)[C@@H](C)[C@H](OC)c3ncc(Cl)cn3)n2[C@H](C)c2cncc(F)c2)n1 (single isomer, unassigned) [Example 348.0, (1R,2S)-1-(5-chloropyrimidin-2-yl)-N-(4-((R)-1-(5-fluoropyridin-3-yl)ethyl)-5-(6-methoxypyridin-2-yl)-4H-1,2,4-triazol-3-yl)-1-methoxypropane-2-sulfonamide or (1R,2S)-1-(5-chloropyrimidin-2-yl)-N-(4-((S)-1-(5-fluoropyridin-3-yl)ethyl)-5-(6-methoxypyridin-2-yl)-4H-1,2,4-triazol-3-yl)-1-methoxypropane-2-sulfonamide] was tested, and the EC50 was 1.34 nM. In the case of COc1cccc(-c2nnc(NS(=O)(=O)[C@@H](C)[C@H](OC)c3ncc(Cl)cn3)n2[C@H](C)c2cncc(F)c2)n1 (single isomer, unassigned) [Example 349.0, (1R,2S)-1-(5-chloropyrimidin-2-yl)-N-(4-((R)-1-(5-fluoropyridin-3-yl)ethyl)-5-(6-methoxypyridin-2-yl)-4H-1,2,4-triazol-3-yl)-1-methoxypropane-2-sulfonamide or (1R,2S)-1-(5-chloropyrimidin-2-yl)-N-(4-((S)-1-(5-fluoropyridin-3-yl)ethyl)-5-(6-methoxypyridin-2-yl)-4H-1,2,4-triazol-3-yl)-1-methoxypropane-2-sulfonamide], the EC50 is reported as 0.43 nM. In the case of COc1cccc(-c2nnc(NS(=O)(=O)[C@@H](C)[C@H](OC)c3ncc(Cl)cn3)n2[C@H](C)c2cccnc2)n1 (single isomer, unassigned) [Example 350.0, (1R,2S)-1-(5-chloropyrimidin-2-yl)-1-methoxy-N-(5-(6-methoxypyridin-2-yl)-4-((R)-1-(pyridin-3-yl)ethyl)-4H-1,2,4-triazol-3-yl)propane-2-sulfonamide or (1R,2S)-1-(5-chloropyrimidin-2-yl)-1-methoxy-N-(5-(6-methoxypyridin-2-yl)-4-((S)-1-(pyridin-3-yl)ethyl)-4H-1,2,4-triazol-3-yl)propane-2-sulfonamide], the EC50 is reported as 7.84 nM. COc1cccc(-c2nnc(NS(=O)(=O)[C@@H](C)[C@H](OC)c3ncc(Cl)cn3)n2[C@H](C)c2cccnc2)n1 (single isomer, unassigned) [Example 351.0, (1R,2S)-1-(5-chloropyrimidin-2-yl)-1-methoxy-N-(5-(6-methoxypyridin-2-yl)-4-((R)-1-(pyridin-3-yl)ethyl)-4H-1,2,4-triazol-3-yl)propane-2-sulfonamide or (1R,2S)-1-(5-chloropyrimidin-2-yl)-1-methoxy-N-(5-(6-methoxypyridin-2-yl)-4-((S)-1-(pyridin-3-yl)ethyl)-4H-1,2,4-triazol-3-yl)propane-2-sulfonamide] showed an EC50 of 0.36 nM. COCCn1c(NS(=O)(=O)[C@H](C)[C@@H](C)c2ncc(Cl)cn2)nnc1-c1cccnc1 (stereo in doubt) [Example 18.0, (2R,3S)-3-(5-chloro-2-pyrimidinyl)-N-(4-(2-methoxyethyl)-5-(3-pyridinyl)-4H-1,2,4-triazol-3-yl)-2-butanesulfonamide] gave an EC50 of 250 nM. With COc1cccc(-c2nnc(NS(=O)(=O)[C@@H](C)[C@H](OC)c3ncc(Cl)cn3)n2[C@@H]2CCC23CCC3)n1 (stereo in doubt) [Example 56.0] the EC50 was 1.9 nM. With COc1cccc(-c2nnc(NS(=O)(=O)[C@@H](C)[C@H](OC)c3ncc(Cl)cn3)n2[C@H]2CCCC[C@H]2C)n1 (stereo in doubt) [Example 75.0] the EC50 was 3 nM. COc1cccc(-c2nnc(NS(=O)(=O)[C@@H](C)[C@H](C)c3ncc(Cl)cn3)n2CC2COC2)n1 [Example 2.0, (2S,3R)-3-(5-chloro-2-pyrimidinyl)-N-(5-(6-methoxy-2-pyridinyl)-4-(3-oxetanylmethyl)-4H-1,2,4-triazol-3-yl)-2-butanesulfonamide] was tested, and the EC50 was over 4200 nM. COCCn1c(NS(=O)(=O)[C@@H](C)[C@H](OC)c2ncc(Cl)cn2)nnc1-c1cccc(OC)n1 [Example 3.0, (1R,2S)-1-(5-chloro-2-pyrimidinyl)-1-methoxy-N-(4-(2-methoxyethyl)-5-(6-methoxy-2-pyridinyl)-4H-1,2,4-triazol-3-yl)-2-propanesulfonamide] showed an EC50 of 2.8 nM. Work on COCC1(n2c(NS(=O)(=O)[C@@H](C)[C@H](OC)c3ncc(Cl)cn3)nnc2-c2cccc(OC)n2)CC1 [Example 4.0] yielded an EC50 of 0.16 nM. Compound COc1cccc(-c2nnc(NS(=O)(=O)[C@@H](C)[C@H](OC)c3ncc(Cl)cn3)n2C(CO)CO)n1 [Example 5.0, (1R,2S)-1-(5-chloro-2-pyrimidinyl)-N-(4-(2-hydroxy-1-(hydroxymethyl)ethyl)-5-(6-methoxy-2-pyridinyl)-4H-1,2,4-triazol-3-yl)-1-methoxy-2-propanesulfonamide] has an EC50 of 50 nM. COCC(COC)n1c(NS(=O)(=O)[C@@H](C)[C@H](OC)c2ncc(Cl)cn2)nnc1-c1cccc(OC)n1 [Example 6.0, (1R,2S)-1-(5-chloro-2-pyrimidinyl)-1-methoxy-N-(4-(2-methoxy-1-(methoxymethyl)ethyl)-5-(6-methoxy-2-pyridinyl)-4H-1,2,4-triazol-3-yl)-2-propanesulfonamide] showed an EC50 of 0.3 nM. Work on COc1cccc(-c2nnc(NS(=O)(=O)[C@@H](C)[C@H](OC)c3ncc(Cl)cn3)n2C2CC3(COC3)C2)n1 [Example 7.0, (1R,2S)-1-(5-chloro-2-pyrimidinyl)-1-methoxy-N-(5-(6-methoxy-2-pyridinyl)-4-(2-oxaspiro[3.3]hept-6-yl)-4H-1,2,4-triazol-3-yl)-2-propanesulfonamide] yielded an EC50 of 240 nM. COCC(COC)n1c(NS(=O)(=O)[C@@H](C)[C@H](OC)c2ncc(C)cn2)nnc1-c1ccccn1 [Example 8.0, (1R,2S)-N-(4-(1,3-dimethoxy-2-propanyl)-5-(2-pyridinyl)-4H-1,2,4-triazol-3-yl)-1-methoxy-1-(5-methyl-2-pyrimidinyl)-2-propanesulfonamide] showed an EC50 of 19 nM. CCC(CC)n1c(NS(=O)(=O)[C@@H](C)[C@H](OC)c2ncc(Cl)cn2)nnc1-c1cccc(OC)n1 [Example 10.0, (1R,2S)-1-(5-chloro-2-pyrimidinyl)-1-methoxy-N-(5-(6-methoxy-2-pyridinyl)-4-(3-pentanyl)-4H-1,2,4-triazol-3-yl)-2-propanesulfonamide] was tested, and the EC50 was 0.32 nM. COc1cccc(-c2nnc(NS(=O)(=O)[C@@H](C)[C@H](OC)c3ncc(Cl)cn3)n2C(C)C)n1 [Example 11.0, (1R,2S)-1-(5-chloro-2-pyrimidinyl)-1-methoxy-N-(5-(6-methoxy-2-pyridinyl)-4-(2-propanyl)-4H-1,2,4-triazol-3-yl)-2-propanesulfonamide] was tested, and the EC50 was 6.4 nM. COCCn1c(NS(=O)(=O)[C@@H](C)[C@@H](OC(C)C)c2ncc(Cl)cn2)nnc1-c1cncc(C)c1 [Example 12.0, (1S,2S)-1-(5-chloro-2-pyrimidinyl)-N-(4-(2-methoxyethyl)-5-(5-methyl-3-pyridinyl)-4H-1,2,4-triazol-3-yl)-1-(2-propanyloxy)-2-propanesulfonamiide] showed an EC50 of 120 nM. COCC(COC)n1c(NS(=O)(=O)[C@@H](C)[C@@H](OC(C)C)c2ncc(Cl)cn2)nnc1-c1cncc(C)c1 [Example 13.0, (1S,2S)-1-(5-chloro-2-pyrimidinyl)-N-(4-(1,3-dimethoxy-2-propanyl)-5-(5-methyl-3-pyridinyl)-4H-1,2,4-triazol-3-yl)-1-(2-propanyloxy)-2-propanesulfonamide] was tested, and the EC50 was 80 nM. Compound COCC(COC)n1c(NS(=O)(=O)[C@@H](C)[C@H](OC)c2ncc(Cl)cn2)nnc1-c1ccccn1 [Example 14.0, (1R,2S)-1-(5-chloro-2-pyrimidinyl)-N-(4-(1,3-dimethoxy-2-propanyl)-5-(2-pyridinyl)-4H-1,2,4-triazol-3-yl)-1-methoxy-2-propanesulfonamiide] has an EC50 of 6.4 nM. For COCC(COC)n1c(NS(=O)(=O)[C@@H](C)[C@H](OC)c2ncc(Cl)cn2)nnc1-c1cncc(C)c1 [Example 15.0, (1R,2S)-1-(5-chloro-2-pyrimidinyl)-N-(4-(1,3-dimethoxy-2-propanyl)-5-(5-methyl-3-pyridinyl)-4H-1,2,4-triazol-3-yl)-1-methoxy-2-propanesulfonamiide], the EC50 was 30 nM.
